Laboratory results taken from ChEMBL document CHEMBL4265949, “Design, synthesis and biological evaluation of 2-substituted 3-hydroxy-6-methyl-4H-pyran-4-one derivatives as Pseudomonas aeruginosa biofilm inhibitors” (Eur J Med Chem, 2018).
The source made the active and inactive calls. The rule behind the calls is not given here.

Legend:
Pseudomonas aeruginosa [1] = assay: Inhibition of biofilm formation of Pseudomonas aeruginosa PAO1 at 20 uM after 24 hrs by crystal violet staining based assay relative to control; format: functional; conditions: PAO1, 24 h
Pseudomonas aeruginosa [2] = assay: Antibacterial activity against Pseudomonas aeruginosa PAO1 recorded every 10 mins for 15 hrs by broth micro dilution method; format: functional
Pseudomonas aeruginosa [3] = assay: Inhibition of biofilm formation of Pseudomonas aeruginosa PAO1 at 2.5 uM after 24 hrs by crystal violet staining based assay relative to control; format: functional; conditions: PAO1, 24 h
[4] = target: Elastase (Pseudomonas aeruginosa (strain ATCC 15692 / PAO1 / 1C / PRS 101 / LMG12228)) (UniProt P14756); assay: Inhibition of Pseudomonas aeruginosa PAO1 GFP-fused quorum sensing lasB assessed as decrease in elastase activity up to 40 uM incubated for 24 hrs recorded every 10 mins for 3 hrs
Elastase (Pseudomonas aeruginosa (strain ATCC 15692 / PAO1 / 1C / PRS 101 / LMG12228)), sequence (P14756 198-498 limits assumed): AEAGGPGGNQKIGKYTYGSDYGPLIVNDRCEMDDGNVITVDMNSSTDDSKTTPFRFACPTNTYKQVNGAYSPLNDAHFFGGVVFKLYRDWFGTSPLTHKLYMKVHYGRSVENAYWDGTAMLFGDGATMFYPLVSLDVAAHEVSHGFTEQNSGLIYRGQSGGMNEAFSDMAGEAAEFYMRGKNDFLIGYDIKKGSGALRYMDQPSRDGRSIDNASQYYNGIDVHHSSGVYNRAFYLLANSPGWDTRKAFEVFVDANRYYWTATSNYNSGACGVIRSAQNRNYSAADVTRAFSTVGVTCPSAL

[5] = target: 3-(3-hydroxydecanoyloxy)decanoate synthase (Pseudomonas aeruginosa (strain ATCC 15692 / PAO1 / 1C / PRS 101 / LMG12228)) (UniProt Q51559); assay: Inhibition of Pseudomonas aeruginosa PAO1 GFP-fused quorum sensing rhlA assessed as decrease in rhamnolipid lipid levels up to 40 uM measured after 30 mins
Pseudomonas aeruginosa [6] = assay: Inhibition of biofilm formation of Pseudomonas aeruginosa PAO1 after 24 hrs by confocal laser scanning microscopy; format: functional, organism-based
[7] = target: T1, Anthranilate--CoA ligase (Pseudomonas aeruginosa (strain ATCC 15692 / DSM 22644 / CIP 104116 /JCM 14847 / LMG 12228 / 1C / PRS 101 / PAO1)) (UniProt Q9I4X3); assay: Inhibition of Pseudomonas aeruginosa PAO1 GFP-fused quorum sensing pqsA assessed as decrease in pyocyanin production
T1 sequence (whole entry): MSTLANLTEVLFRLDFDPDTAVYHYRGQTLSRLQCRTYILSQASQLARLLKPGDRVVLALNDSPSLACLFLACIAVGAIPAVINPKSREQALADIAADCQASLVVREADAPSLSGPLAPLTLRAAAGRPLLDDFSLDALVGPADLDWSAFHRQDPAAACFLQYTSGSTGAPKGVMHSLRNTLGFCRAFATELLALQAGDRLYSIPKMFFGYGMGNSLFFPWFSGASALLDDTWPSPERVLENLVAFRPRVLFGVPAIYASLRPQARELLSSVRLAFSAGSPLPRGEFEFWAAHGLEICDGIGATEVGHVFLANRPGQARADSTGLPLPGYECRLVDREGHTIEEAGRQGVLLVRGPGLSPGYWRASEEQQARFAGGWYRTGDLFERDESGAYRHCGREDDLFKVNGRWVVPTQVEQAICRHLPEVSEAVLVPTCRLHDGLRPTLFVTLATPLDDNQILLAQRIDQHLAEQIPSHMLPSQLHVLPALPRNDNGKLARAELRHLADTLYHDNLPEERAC

Pseudomonas aeruginosa [8] = assay: Antibacterial activity against Pseudomonas aeruginosa PAO1 up to 40 uM after 13 hrs by broth micro dilution method; format: functional, organism-based
RAW264.7 [9] = assay: Cytotoxicity against mouse RAW264.7 cells assessed as decrease in cell viability at 50 uM after 24 hrs by MTT assay; format: cell-based; conditions: raw264.7, 24 h
RAW264.7 [10] = assay: Cytotoxicity against mouse RAW264.7 cells assessed as decrease in cell viability at <= 2.5 uM after 24 hrs by MTT assay; format: cell-based; conditions: raw264.7, 24 h
[11] = target: Elastase (Pseudomonas aeruginosa (strain ATCC 15692 / PAO1 / 1C / PRS 101 / LMG12228)) (UniProt P14756); assay: Inhibition of Pseudomonas aeruginosa PAO1 GFP-fused quorum sensing lasB up to 40 uM measured every 15 mins up to 12 hrs by GFP reporter gene assay
[12] = target: 3-(3-hydroxydecanoyloxy)decanoate synthase (Pseudomonas aeruginosa (strain ATCC 15692 / PAO1 / 1C / PRS 101 / LMG12228)) (UniProt Q51559); assay: Inhibition of Pseudomonas aeruginosa PAO1 GFP-fused quorum sensing rhlA up to 40 uM measured every 15 mins up to 12 hrs by GFP reporter gene assay
[13] = Effect on GFP (unknown origin) protein expression in Pseudomonas aeruginosa PAO1 up to 40 uM after 12 hrs by GFP reporter gene assay; conditions: unidentified
[14] = target: T1, Anthranilate--CoA ligase (Pseudomonas aeruginosa (strain ATCC 15692 / DSM 22644 / CIP 104116 /JCM 14847 / LMG 12228 / 1C / PRS 101 / PAO1)); assay: Inhibition of Pseudomonas aeruginosa PAO1 GFP-fused quorum sensing pqsA measured every 15 mins up to 12 hrs by GFP reporter gene assay
[15] = target: T1, Anthranilate--CoA ligase (Pseudomonas aeruginosa (strain ATCC 15692 / DSM 22644 / CIP 104116 /JCM 14847 / LMG 12228 / 1C / PRS 101 / PAO1)); assay: Inhibition of Pseudomonas aeruginosa PAO1 GFP-fused quorum sensing pqsA assessed as decrease in pyocyanin production at 40 uM
Pseudomonas aeruginosa [16] = assay: Inhibition of biofilm formation of Pseudomonas aeruginosa PAO1 after 24 hrs by crystal violet staining based assay; format: functional, organism-based

SMILES: CCCCCC(O)c1oc(C)cc(=O)c1O (stereo unspecified)
- inhibition at 20 µM (Pseudomonas aeruginosa [1]): 44.6%
- MIC (Pseudomonas aeruginosa [2]): > 512 µM

SMILES: Cc1cc(=O)c(O)c(C(O)c2ccc([N+](=O)[O-])cc2)o1 (stereo unspecified)
- inhibition at 2.5 µM (Pseudomonas aeruginosa [3]): 30%
- inhibition [4]: inactive
- inhibition [5]: inactive
- inhibition (Pseudomonas aeruginosa [6]): Dose-dependent effect
- inhibition [7]: Dose-dependent effect
- Activity (Pseudomonas aeruginosa [8]): inactive
- Activity (RAW264.7 [9]): Toxic
- Activity (RAW264.7 [10]): Non-Toxic
- inhibition [11]: inactive
- inhibition [12]: inactive
- Activity [13]: Non-Toxic
- inhibition [14]: Dose-dependent effect
- inhibition at 20 µM (Pseudomonas aeruginosa [1]): 51%
- inhibition [15]: 60%
- MIC (Pseudomonas aeruginosa [2]): > 512 µM
- inhibition (Pseudomonas aeruginosa [16]): Dose-dependent effect

SMILES: Cc1cc(=O)c(O)c(C(O)c2ccc(-c3ccccc3)cc2)o1 (stereo unspecified)
- inhibition at 20 µM (Pseudomonas aeruginosa [1]): 3.26%
- MIC (Pseudomonas aeruginosa [2]): > 512 µM

SMILES: CCCCCCC(O)c1oc(C)cc(=O)c1O (stereo unspecified)
- inhibition at 20 µM (Pseudomonas aeruginosa [1]): 41.5%
- MIC (Pseudomonas aeruginosa [2]): > 512 µM

SMILES: Cc1cc(=O)c(O)c(C(O)c2ccc(Cc3ccccc3)cc2)o1 (stereo unspecified)
- inhibition at 20 µM (Pseudomonas aeruginosa [1]): 20.6%
- MIC (Pseudomonas aeruginosa [2]): > 512 µM

SMILES: Cc1cc(=O)c(O)c(C(O)c2cccc(Br)c2)o1 (stereo unspecified)
- inhibition at 20 µM (Pseudomonas aeruginosa [1]): 5.67%
- MIC (Pseudomonas aeruginosa [2]): > 512 µM

SMILES: Cc1cc(=O)c(O)c(C(O)c2ccc(CCc3ccccc3)cc2)o1 (stereo unspecified)
- inhibition at 20 µM (Pseudomonas aeruginosa [1]): 28.7%
- MIC (Pseudomonas aeruginosa [2]): > 512 µM

SMILES: CCCCC(O)c1oc(C)cc(=O)c1O (stereo unspecified)
- inhibition at 20 µM (Pseudomonas aeruginosa [1]): 22%
- MIC (Pseudomonas aeruginosa [2]): > 512 µM

SMILES: Cc1cc(=O)c(O)c(Cc2ccc(F)cc2)o1
- inhibition at 20 µM (Pseudomonas aeruginosa [1]): 30.5%
- MIC (Pseudomonas aeruginosa [2]): > 512 µM

SMILES: Cc1cc(=O)c(O)c(Cc2ccccc2)o1
- inhibition at 20 µM (Pseudomonas aeruginosa [1]): 27.4%
- MIC (Pseudomonas aeruginosa [2]): > 512 µM

SMILES: Cc1cc(=O)c(O)c(C(O)c2ccc(-n3ccnc3)cc2)o1 (stereo unspecified)
- inhibition at 20 µM (Pseudomonas aeruginosa [1]): 17.3%
- MIC (Pseudomonas aeruginosa [2]): > 512 µM

SMILES: Cc1cc(=O)c(O)c(C(O)c2ccc(C#Cc3cccc(F)c3)cc2)o1 (stereo unspecified)
- inhibition at 20 µM (Pseudomonas aeruginosa [1]): 31.5%
- MIC (Pseudomonas aeruginosa [2]): > 512 µM

SMILES: Cc1cc(=O)c(O)c(C(O)c2cccc(F)c2)o1 (stereo unspecified)
- inhibition at 20 µM (Pseudomonas aeruginosa [1]): 12.3%
- MIC (Pseudomonas aeruginosa [2]): > 512 µM

SMILES: CSCCC(O)c1oc(C)cc(=O)c1O (stereo unspecified)
- inhibition at 20 µM (Pseudomonas aeruginosa [1]): 25.9%
- MIC (Pseudomonas aeruginosa [2]): > 512 µM

SMILES: Cc1cc(=O)c(O)c(C(O)c2ccccc2F)o1 (stereo unspecified)
- inhibition at 20 µM (Pseudomonas aeruginosa [1]): 5.34%
- MIC (Pseudomonas aeruginosa [2]): > 512 µM

SMILES: CCCCCCCC(O)c1oc(C)cc(=O)c1O (stereo unspecified)
- inhibition at 20 µM (Pseudomonas aeruginosa [1]): 15.8%
- MIC (Pseudomonas aeruginosa [2]): > 512 µM

SMILES: Cc1cc(=O)c(O)c(C(O)c2ccc(/C=C/c3ccccc3)cc2)o1 (stereo unspecified)
- inhibition at 20 µM (Pseudomonas aeruginosa [1]): 35.1%
- MIC (Pseudomonas aeruginosa [2]): > 512 µM

SMILES: Cc1cc(=O)c(O)c(C(O)c2ccc(C#Cc3ccccc3)cc2)o1 (stereo unspecified)
- inhibition at 20 µM (Pseudomonas aeruginosa [1]): 30.2%
- MIC (Pseudomonas aeruginosa [2]): > 512 µM

SMILES: Cc1cc(=O)c(O)c(C(O)c2ccccc2Br)o1 (stereo unspecified)
- inhibition at 20 µM (Pseudomonas aeruginosa [1]): 9.04%
- MIC (Pseudomonas aeruginosa [2]): > 512 µM

SMILES: Cc1cc(=O)c(O)c(Cc2ccc(Cl)cc2)o1
- inhibition at 20 µM (Pseudomonas aeruginosa [1]): 34.2%
- MIC (Pseudomonas aeruginosa [2]): > 512 µM

SMILES: Cc1cc(=O)c(O)c(C(O)c2ccc(OCc3ccccc3)cc2)o1 (stereo unspecified)
- inhibition at 20 µM (Pseudomonas aeruginosa [1]): 22%
- MIC (Pseudomonas aeruginosa [2]): > 512 µM

SMILES: Cc1cc(=O)c(O)c(C(O)c2ccc(C#Cc3ccc(C(F)(F)F)cc3)cc2)o1 (stereo unspecified)
- inhibition at 20 µM (Pseudomonas aeruginosa [1]): 24.9%
- MIC (Pseudomonas aeruginosa [2]): > 512 µM

SMILES: Cc1cc(=O)c(O)c(C(O)c2ccc(-c3ccc([N+](=O)[O-])cc3)cc2)o1 (stereo unspecified)
- inhibition at 20 µM (Pseudomonas aeruginosa [1]): 48.5%
- MIC (Pseudomonas aeruginosa [2]): > 512 µM

SMILES: Cc1cc(=O)c(O)c(C(O)c2ccc(OCc3ccc([N+](=O)[O-])cc3)cc2)o1 (stereo unspecified)
- inhibition at 20 µM (Pseudomonas aeruginosa [1]): 22%
- MIC (Pseudomonas aeruginosa [2]): > 512 µM

SMILES: COc1ccc(C#Cc2ccc(C(O)c3oc(C)cc(=O)c3O)cc2)cc1 (stereo unspecified)
- inhibition at 20 µM (Pseudomonas aeruginosa [1]): 26.3%
- MIC (Pseudomonas aeruginosa [2]): > 512 µM

SMILES: Cc1cc(=O)c(O)c(C(O)c2ccc(C#Cc3ccc(F)cc3)cc2)o1 (stereo unspecified)
- inhibition at 20 µM (Pseudomonas aeruginosa [1]): 39.1%
- MIC (Pseudomonas aeruginosa [2]): > 512 µM

SMILES: Cc1cc(=O)c(O)c(C(O)c2ccc(S(F)(F)(F)(F)F)cc2)o1 (stereo unspecified)
- inhibition at 20 µM (Pseudomonas aeruginosa [1]): 31.7%
- MIC (Pseudomonas aeruginosa [2]): > 512 µM

SMILES: CCCC(O)c1oc(C)cc(=O)c1O (stereo unspecified)
- inhibition at 20 µM (Pseudomonas aeruginosa [1]): 33.2%
- MIC (Pseudomonas aeruginosa [2]): > 512 µM

SMILES: Cc1cc(=O)c(O)c(C(O)c2ccc(C#Cc3ccccn3)cc2)o1 (stereo unspecified)
- inhibition at 20 µM (Pseudomonas aeruginosa [1]): 37.7%
- MIC (Pseudomonas aeruginosa [2]): > 512 µM

SMILES: Cc1cc(=O)c(O)c(C(O)c2ccc(C#CC3CCCCC3)cc2)o1 (stereo unspecified)
- inhibition at 20 µM (Pseudomonas aeruginosa [1]): 36.9%
- MIC (Pseudomonas aeruginosa [2]): > 512 µM

SMILES: Cc1cc(=O)c(O)c(Cc2ccc(C(F)(F)F)cc2)o1
- inhibition at 20 µM (Pseudomonas aeruginosa [1]): 32.8%
- MIC (Pseudomonas aeruginosa [2]): > 512 µM
